Data as given in ChEMBL document CHEMBL5120938, “Development of BET Inhibitors as Potential Treatments for Cancer: Optimization of Pharmacokinetic Properties” (ACS Med Chem Lett, 2022).
Values belong to the molecule of their own block, whether it stands above or below them.

How the values were obtained:
[1] = Metabolic stability in alamethicin treated Beagle dog liver microsomes assessed as half life pretreated for 5 mins followed by NADPH addition and measured up to 45 mins by LC-MS/MS analysis; format: ADME, Canis lupus familiaris, Microsome; conditions: time < 50 min
[2] = Metabolic stability in alamethicin treated cynomologus monkey liver microsomes assessed as half life pretreated for 5 mins followed by NADPH addition and measured up to 45 mins by LC-MS/MS analysis; format: ADME, Macaca fascicularis, Microsome; conditions: cynomolgus monkey, time < 50 min
[3] = Half life in dog at 0.1 mg/kg, iv; format: ADME, organism-based, Canis lupus familiaris; conditions: in vivo
[4] = target: Bromodomain-containing protein 3 (Homo sapiens, UniProt Q15059); assay: Inhibition of BRD3 (unknown origin)
Bromodomain-containing protein 3, sequence (Q15059 whole entry): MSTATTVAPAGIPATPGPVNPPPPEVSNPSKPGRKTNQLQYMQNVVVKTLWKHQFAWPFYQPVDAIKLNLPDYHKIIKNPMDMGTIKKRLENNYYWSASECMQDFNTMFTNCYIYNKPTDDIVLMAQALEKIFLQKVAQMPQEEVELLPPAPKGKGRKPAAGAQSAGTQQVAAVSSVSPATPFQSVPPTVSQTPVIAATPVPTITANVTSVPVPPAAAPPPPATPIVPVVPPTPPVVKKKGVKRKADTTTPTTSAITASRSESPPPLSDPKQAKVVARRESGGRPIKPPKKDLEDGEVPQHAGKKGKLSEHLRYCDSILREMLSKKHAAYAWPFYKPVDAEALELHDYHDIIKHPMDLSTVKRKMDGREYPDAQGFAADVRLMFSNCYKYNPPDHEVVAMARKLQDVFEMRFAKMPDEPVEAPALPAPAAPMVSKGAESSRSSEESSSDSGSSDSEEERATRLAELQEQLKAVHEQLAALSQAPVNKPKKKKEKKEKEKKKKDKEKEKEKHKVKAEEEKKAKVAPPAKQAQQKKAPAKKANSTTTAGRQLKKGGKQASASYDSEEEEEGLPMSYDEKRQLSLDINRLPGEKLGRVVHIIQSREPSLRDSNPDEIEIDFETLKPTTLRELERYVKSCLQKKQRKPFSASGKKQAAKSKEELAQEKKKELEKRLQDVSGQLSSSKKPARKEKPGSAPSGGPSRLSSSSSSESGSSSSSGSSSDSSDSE

[5] = Half life in rat at 1 mg/kg, iv; format: ADME, organism-based; conditions: in vivo
[6] = AUC in rat at 5 mg/kg, po; format: ADME, organism-based; parameters: dose 5 mg/kg, route po; conditions: in vivo
[7] = Metabolic stability in alamethicin treated cynomologus monkey liver microsomes assessed as half life pretreated for 5 mins followed by UDPGA addition and measured up to 45 mins by LC-MS/MS analysis; format: ADME, Macaca fascicularis, Microsome; conditions: cynomolgus monkey, time < 50 min
[8] = Half life in mouse at 1 mg/kg, iv; format: ADME, organism-based; conditions: in vivo
[9] = Volume of distribution in rat at 5 mg/kg, po or 1 mg/kg, iv; format: ADME, organism-based; conditions: in vivo
[10] = Half life in cynomologus monkey at 0.1 mg/kg, iv; format: ADME, organism-based, Macaca fascicularis; conditions: cynomolgus monkey, in vivo
[11] = Metabolic stability in alamethicin treated Sprague-Dawley rat liver microsomes assessed as half life pretreated for 5 mins followed by NADPH addition and measured up to 45 mins by LC-MS/MS analysis; format: ADME, Microsome; conditions: time < 50 min
[12] = Metabolic stability in alamethicin treated human liver microsomes assessed as half life pretreated for 5 mins followed by NADPH addition and measured up to 45 mins by LC-MS/MS analysis; format: ADME, Microsome; conditions: time < 50 min
[13] = Metabolic stability in alamethicin treated CD-1 mouse liver microsomes assessed as half life pretreated for 5 mins followed by UDPGA addition and measured up to 45 mins by LC-MS/MS analysis; format: ADME, Microsome; conditions: time < 50 min
[14] = Oral bioavailability in dog at 0.3 mg/kg; format: ADME, organism-based, Canis lupus familiaris; conditions: in vivo
[15] = Volume of distribution in dog at 0.3 mg/kg, po or 0.1 mg/kg, iv; format: ADME, organism-based, Canis lupus familiaris; conditions: in vivo
[16] = Metabolic stability in alamethicin treated Sprague-Dawley rat liver microsomes assessed as half life pretreated for 5 mins followed by UDPGA addition and measured up to 45 mins by LC-MS/MS analysis; format: ADME, Microsome; conditions: time < 50 min
[17] = Drug metabolism in human hepatocytes assessed as glucuronides formation at 5 uM measured after 2 hrs by LC/UV/MS analysis; format: ADME, cell-based, Hepatocyte
[18] = target: Bromodomain-containing protein 2 (Homo sapiens, UniProt P25440); assay: Inhibition of BRD2 (unknown origin)
Bromodomain-containing protein 2, sequence (P25440 whole entry): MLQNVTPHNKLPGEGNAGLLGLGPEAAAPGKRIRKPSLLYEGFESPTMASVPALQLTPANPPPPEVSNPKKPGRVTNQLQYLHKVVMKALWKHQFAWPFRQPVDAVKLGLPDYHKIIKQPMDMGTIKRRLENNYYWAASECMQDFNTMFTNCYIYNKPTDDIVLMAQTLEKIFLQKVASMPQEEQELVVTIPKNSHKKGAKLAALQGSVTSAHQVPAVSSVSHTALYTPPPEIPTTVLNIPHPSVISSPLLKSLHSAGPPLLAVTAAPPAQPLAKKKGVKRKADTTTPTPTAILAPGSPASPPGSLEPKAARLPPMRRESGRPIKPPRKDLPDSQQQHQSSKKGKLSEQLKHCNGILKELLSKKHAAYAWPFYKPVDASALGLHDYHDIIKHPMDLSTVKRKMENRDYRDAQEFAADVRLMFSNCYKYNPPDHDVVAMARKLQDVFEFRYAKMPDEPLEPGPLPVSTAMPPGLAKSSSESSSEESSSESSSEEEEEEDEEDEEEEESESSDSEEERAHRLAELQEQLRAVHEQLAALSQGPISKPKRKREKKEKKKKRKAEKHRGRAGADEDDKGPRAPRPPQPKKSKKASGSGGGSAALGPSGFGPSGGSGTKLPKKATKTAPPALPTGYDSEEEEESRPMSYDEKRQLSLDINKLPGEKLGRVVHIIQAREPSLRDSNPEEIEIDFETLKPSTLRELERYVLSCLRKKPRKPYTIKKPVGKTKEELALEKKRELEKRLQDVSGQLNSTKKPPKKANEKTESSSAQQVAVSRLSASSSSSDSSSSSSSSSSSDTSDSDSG

[19] = Antiproliferative activity against human JJN-3R cells assessed as inhibition of cell proliferation measured after 72 hrs by MTS assay; format: functional, cell-based
[20] = Metabolic stability in alamethicin treated human liver microsomes assessed as half life pretreated for 5 mins followed by UDPGA addition and measured up to 45 mins by LC-MS/MS analysis; format: ADME, Microsome; conditions: time < 50 min
[21] = Antitumor activity against human BR1077F cells xenografted in mouse assessed as tumor growth inhibition at 2 mg/kg, po QD treated as 5 days on and 2 days off regimen for 2 weeks starting from 26 days post tumor implantation; format: functional; conditions: 336 h, read-out: TGI
[22] = Inhibition of c-MYC expression in human JJN-3R cells measured after 4 hrs; format: functional, cell-based
[23] = Oral bioavailability in mouse at 3 mg/kg; format: ADME, organism-based; conditions: in vivo
[24] = AUC in mouse xenografted with human BR1077F cells at 2 mg/kg, po QD treated as 5 days on and 2 days off regimen for 2 weeks starting from 26 days post tumor implantation; format: ADME, organism-based; parameters: time 2 weeks, dose 2 mg/kg, route po; conditions: in vivo
[25] = Oral bioavailability in rat at 5 mg/kg; format: ADME, organism-based; conditions: in vivo
[26] = Volume of distribution in cynomologus monkey at 0.3 mg/kg, po or 0.1 mg/kg, iv; format: ADME, organism-based, Macaca fascicularis; conditions: cynomolgus monkey, in vivo
[27] = Metabolic stability in alamethicin treated Beagle dog liver microsomes assessed as half life pretreated for 5 mins followed by UDPGA addition and measured up to 45 mins by LC-MS/MS analysis; format: ADME, Canis lupus familiaris, Microsome; conditions: for half-life: Beagle, liver microsomes, time < 50 min
[28] = Efflux ratio of apparent permeability across […] in human Caco-2 cells after 2 hrs by liquid scintillation counting analysis; format: ADME, cell-based; conditions: caco-2, 2 h
[29] = Oral bioavailability in cynomologus monkey at 0.3 mg/kg; format: ADME, organism-based, Macaca fascicularis; conditions: cynomolgus monkey, in vivo
[30] = Volume of distribution in mouse at 3 mg/kg, po or 1 mg/kg, iv; format: ADME, organism-based; conditions: in vivo
[31] = Metabolic stability in alamethicin treated CD-1 mouse liver microsomes assessed as half life pretreated for 5 mins followed by NADPH addition and measured up to 45 mins by LC-MS/MS analysis; format: ADME, Microsome; conditions: time < 50 min
[32] = AUC in cynomologus monkey at 0.3 mg/kg, po; format: ADME, organism-based, Macaca fascicularis; parameters: dose 0.3 mg/kg, route po; conditions: cynomolgus monkey, in vivo
[33] = AUC in dog at 0.3 mg/kg, po; format: ADME, organism-based, Canis lupus familiaris; parameters: dose 0.3 mg/kg, route po; conditions: in vivo
[34] = AUC in mouse at 3 mg/kg, po; format: ADME, organism-based; parameters: dose 3 mg/kg, route po; conditions: in vivo
[35] = target: Bromodomain-containing protein 4 (Homo sapiens, UniProt O60885); assay: Inhibition of N-terminal His6-tagged recombinant human BRD4 (44 to 168 residues) expressed in Escherichia coli BL21 (DE3) incubated for 60 mins by TR-FRET assay

Compound: [2H]C([2H])([2H])c1nnn(C)c1-c1cnc2c3c(F)cc(C(C)(C)O)cc3n([C@H](c3ccccc3)C3CCOCC3)c2c1
half-life [1]: 40 min
half-life [2]: 32 min
half-life [7]: 120 min
half-life [11]: 62 min
half-life [12]: 63 min
half-life [13]: 120 min
IC50 [35]: 8 nM
half-life [16]: 120 min
IC50 [19]: 10 nM
half-life [20]: 120 min
IC50 [22]: 4.5 nM
half-life [27]: 120 min
Ratio [28]: 9.7
half-life [31]: 48 min

Compound: COC(C)(C)c1ccc2c3ncc(-c4c(C)nnn4C)cc3n([C@H](c3ccccc3)C3CCOCC3)c2c1
half-life [11]: 18 min
half-life [12]: 3 min
IC50 [35]: 1.4 nM
IC50 [19]: 7 nM
IC50 [22]: 3 nM
half-life [31]: 7 min

Compound: [2H]C([2H])([2H])c1nnn(C)c1-c1cnc2c3cc(Cl)c(C(C)(C)O)cc3n([C@H](c3ccccc3)C3CCOCC3)c2c1
half-life [1]: 33 min
half-life [2]: 45 min
half-life [7]: 120 min
half-life [11]: 39 min
half-life [12]: 38 min
half-life [13]: 120 min
IC50 [35]: 2.2 nM
half-life [16]: 120 min
IC50 [19]: 3 nM
half-life [20]: 110 min
IC50 [22]: 2 nM
half-life [27]: 120 min
Ratio [28]: 1.4
half-life [31]: 34 min

Continued by falling IC50 [22], values first:

half-life [1]: 32 min
half-life [2]: 10 min
half-life [3]: 456 min
IC50 [4]: 1.6 nM
half-life [5]: 246 min
AUC [6]: 6.6 µM·h
half-life [7]: 120 min
half-life [8]: 204 min
Vd [9]: 2.9 L/kg
half-life [10]: 240 min
half-life [11]: 46 min
half-life [12]: 52 min
half-life [13]: 120 min
bioavailability [14]: 73%
Vd [15]: 5.8 L/kg
half-life [16]: 120 min
Drug metabolism [17]: Metabolite_Notdetected
IC50 [18]: 0.2 nM
half-life [20]: 120 min
IC50 [22]: 2 nM
bioavailability [23]: 100%
AUC at 336 h [24]: 4.8 µM·h
bioavailability [25]: 74%
Vd [26]: 1.3 L/kg
t1/2 ([27]; microsomes, 50 min): 120 min
Ratio [28]: 1.8
bioavailability [29]: 85%
Vd [30]: 1.4 L/kg
half-life [31]: 41 min
AUC [32]: 1.9 µM·h
AUC [33]: 0.55 µM·h
AUC [34]: 25 µM·h
Compound: [2H]C([2H])([2H])c1nnn(C)c1-c1cnc2c3cc(F)c(C(C)(C)O)cc3n([C@H](c3ccccc3)C3CCOCC3)c2c1
IC50 [19]: 6 nM
inhibition in vivo at 2 mg/kg [21]: 88%

half-life [1]: 35 min
half-life [2]: 30 min
half-life [7]: 120 min
half-life [11]: 35 min
half-life [12]: 56 min
half-life [13]: 120 min
IC50 [35]: 1.1 nM
half-life [16]: 6 min
half-life [20]: 120 min
IC50 [22]: 1.2 nM
half-life [27]: 120 min
Ratio [28]: 1.2
half-life [31]: 25 min
Compound: [2H]C([2H])([2H])c1nnn(C)c1-c1cnc2c3ccc(C(C)(C)O)c(Cl)c3n([C@H](c3ccccc3)C3CCOCC3)c2c1
IC50 [19]: 7 nM

half-life [1]: 9 min
half-life [2]: 1 min
half-life [11]: 13 min
half-life [12]: 9 min
half-life [13]: 120 min
IC50 [35]: 0.8 nM
IC50 [22]: 1 nM
Ratio [28]: 1.3
half-life [31]: 5 min
Compound: COc1cc2c3ncc(-c4c(C)nnn4C)cc3n([C@H](c3ccccc3)C3CCOCC3)c2cc1C(C)(C)O
IC50 [19]: 4 nM

half-life [1]: 37 min
half-life [2]: 29 min
half-life [11]: 43 min
half-life [12]: 59 min
IC50 [35]: 1.2 nM
IC50 [22]: 0.8 nM
Ratio [28]: 6.1
half-life [31]: 25 min
Compound: [2H]C([2H])([2H])c1nnn(C)c1-c1cnc2c3ccc(C(C)(C)O)cc3n([C@H](c3ccccc3)C3CCOCC3)c2c1
IC50 [19]: 6 nM
